Data reported in US20230114207A1, “THE COMBINATION OF CYCLIN DEPENDENT KINASE 7 INHIBITOR AND IMMUNOTHERAPY FOR TREATMENT OF CANCER” (Dana-Farber Cancer Institute, Inc., priority 2019, published 2023).

Tests used:
[1] = test system: Cyclin K, the obligate binding partner of CDK12/13; assay: Competitive pulldown assay (Bio-THZ1), Cyclin K; type: cell-based, mouse; details: SCLC cells treated 6 hours
Protocol: (§1) Bio-THZ1 pulldown experiments followed by western blotting of enriched proteins was performed as described in Kwiatkowski, et al., Nature, 2014, 511, 616-620. Briefly, cells were treated with YKL-5-124 or DMSO for 6 hr (in vitro) or 72 hr (in vivo). Following treatment, cells were washed twice with cold PBS and then lysed in the following lysis buffer: 50 mM TrisHCI pH 8.0, 150 mM NaCl, 1% NP-40, 5 mM EDTA, 1 mM DTT, and protease/phosphatase cocktails. Following clearance, lysates were treated with biotinylated THZ1 for pulldown overnight at 4° C. Lysates were further incubated at room temperature for 3 hr to increase the efficiency of covalent bond formation. Lysates were then incubated with streptavidin agarose for pulldown for an additional 2-3 hr at 4° C. Agarose beads were washed 5 times with lysis buffer and then boiled in 2×SDS at 95° C. SDS-page resolved precipitated proteins were probed for the indicated proteins.

[2] = test system: RPP631 and DMS79 cells; assay: Cell cycle analysis (propidium iodide flow cytometry); type: cell-based, mouse, human
Protocol: Cells were seeded in 6-well plates (0.5-1×10^6 cells/well) in media and treated with YKL-5-124 at indicated concentrations and time points. Cells were collected by centrifugation, washed in cold PBS and resuspended in 1 ml of 80% EtOH in PBS and stored overnight at −20° C. Cells were again collected by centrifugation and washed 3× with cold PBS. Hereafter cells were resuspended in PBS containing: 0.1% Triton X-100, 25 μg/ml Propidium Iodide (PI) and 0.2 mg/ml RNase A and incubated for 45 min at 37° C. After incubation, cells were placed at 4° C. until ready for analysis with flow cytometry. Cells were gated for PI staining and cell accumulation in G1, S and G2/M were calculated using ModFit LT software.

[3] = test system: RPP GEMMs; assay: Treatment study in autochthonous RPP GEMMs; type: in vivo, mouse
Protocol: All animal studies were reviewed and approved by the Institutional Animal Care and Use Committee (IACUC) at the New York University Langone Health (NYULH) and Dana-Farber Cancer Institute (DFCI). From 6 weeks of age, mice were induced with adenovirus-Cre recombinase (Ad-Cre) by intratracheal intubation to allow cre-lox-mediated recombination of floxed Rb1, p53 and p130 alleles. For syngeneic orthotopic models, ultrasound-guided transthoracic injection was performed using 200,000 RPP631, RP or RPP-MYC cells in 30 μL PBS directly into the lung of 6 to S-week-old C57BL/6 (Jackson Laboratory, Stock No: 000664). For OT-IT cell assay, OT-I mice were purchased from the Jackson Laboratory (Stock No: 003S31). Both males and females mice were used and all mice were maintained in accordance with the respective NYULH and DFCI on the care, welfare, and treatment of laboratory animals. […]
Animals were anesthetized with isoflurane to perform MRI of the lung field using BioSpec USR70/30 horizontal bore system (Bruker) to scan 24 consecutive sections. Tumor volumes within the whole lung were quantified using 3-D slicer software to reconstruct MRI volumetric measurements as described previously. […]

[4] = test system: Cyclin E, A, B, D in RPP631 and DMS79; assay: Cyclin expression (western blotting, qRT-PCR); type: cell-based, mouse, human; details: 24 hours
Protocol: (§2) Cell pellets were collected and then subjected to total RNA extraction using RNeasy Plus Mini Kit (QIAGEN, Cat #74136) according to the manufacturer's instructions, or using TRIzol:Chloroform phase-separation by centrifugation followed by RNA precipitation using isopropanol. The extracted RNA was reversely transcribed into cDNA using the High-Capacity RNA-to-cDNA™ Kit (Thermo Fisher Scientific, Cat #4387406) according to the manufacturer's instructions. The obtained cDNA samples were diluted and used for RT-qPCR. PowerUp™ SYBR™ Green Master Mix (Thermo Fisher Scientific, Cat #A25742) or TaqMan Gene Expression Master Mix (Life Technologies, Cat #4369514). Gene specific primers with sequences listed in Table 3 were used for PCR amplification and detection on the StepOnePlus™ Real-Time PCR System (Thermo Fisher Scientific). RT-qPCR data were normalized to Actb (mouse cells) or GUSB (human cells) and presented as fold changes of gene expression in the test sample compared to the control.
Cells in culture were collected by centrifuging at 1,500 rpm and then washed with ice-cold PBS twice to completely remove residual medium. […] Protein concentrations in lysates were measured by Pierce™ BCA Protein Assay Kit (Thermo Fisher Scientific, Cat #23225) and followed by the addition of SDS loading buffer (6×) and heated at 95° C. for 5 min. […]

[5] = test system: HAP1 cells expressing CDK7 wild-type (WT); assay: RT-qPCR of TNF and CXCL10 in HAP1 CDK7 WT cells; type: cell-based, human; details: 100 nM, 48 hr
Protocol: as §2

[6] = molecular target: T1, CDK7 (Mus musculus, UniProt Q03147); assay: In vivo target engagement by competitive pulldown assay; details: 10 mg/kg
T1 construct: from tissue
T1 sequence (Q03147 2-346 limits assumed): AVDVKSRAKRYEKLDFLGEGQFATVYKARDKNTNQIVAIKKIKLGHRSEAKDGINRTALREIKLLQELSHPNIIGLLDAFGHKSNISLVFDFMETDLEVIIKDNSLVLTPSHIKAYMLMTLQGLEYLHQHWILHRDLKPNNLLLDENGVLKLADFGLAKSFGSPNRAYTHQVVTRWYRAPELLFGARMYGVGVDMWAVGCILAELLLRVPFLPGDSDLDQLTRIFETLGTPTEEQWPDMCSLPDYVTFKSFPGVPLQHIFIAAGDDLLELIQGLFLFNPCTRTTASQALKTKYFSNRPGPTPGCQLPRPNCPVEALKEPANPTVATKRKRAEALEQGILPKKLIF
T1 sequence (Q61458 whole entry partner): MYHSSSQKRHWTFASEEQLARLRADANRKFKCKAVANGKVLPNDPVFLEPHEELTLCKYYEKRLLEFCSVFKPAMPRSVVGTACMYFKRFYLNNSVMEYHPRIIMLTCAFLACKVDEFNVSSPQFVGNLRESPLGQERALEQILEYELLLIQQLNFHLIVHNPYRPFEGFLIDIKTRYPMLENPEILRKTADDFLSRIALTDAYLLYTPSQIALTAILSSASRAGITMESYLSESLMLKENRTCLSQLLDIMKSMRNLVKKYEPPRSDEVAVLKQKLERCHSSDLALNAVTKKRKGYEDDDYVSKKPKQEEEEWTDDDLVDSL
T1 sequence (P51949 whole entry partner): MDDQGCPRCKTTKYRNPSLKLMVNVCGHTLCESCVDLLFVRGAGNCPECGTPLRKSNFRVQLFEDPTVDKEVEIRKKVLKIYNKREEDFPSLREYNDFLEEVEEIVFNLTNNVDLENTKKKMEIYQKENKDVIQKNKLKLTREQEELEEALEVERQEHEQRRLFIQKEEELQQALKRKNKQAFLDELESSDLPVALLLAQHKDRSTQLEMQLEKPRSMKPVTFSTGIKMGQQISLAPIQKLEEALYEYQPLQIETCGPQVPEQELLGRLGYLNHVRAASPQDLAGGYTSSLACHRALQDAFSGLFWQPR
Protocol: as §1

## C=CC(=O)Nc1ccc(C(=O)Nc2n[nH]c3c2CN(C(=O)N[C@H](CN(C)C)c2ccccc2)C3(C)C)cc1 [YKL-5-124]
[1]
  block of pulldown of Cyclin K: failed to block
[2]; 72 hours
  cells in G1 phase: significant accumulation
  cells in S phase: corresponding loss
[2]; concentrations up to 500 nM
  percentage of cells in G2/M phase: not significantly changed
[3]; 3-week time point
  mice with more than 50% increase of tumor burden: none
[3]; RPP GEMMs
  median overall survival: 56 days
[4]
  Cyclin E protein and mRNA (CCNE1) levels: increase
  expression of Cyclins A (CCNA1), B (CCNB1), and D (CCND1): remained unchanged
[5]
  TNF and CXCL10 expression: significant increase
[6]
  target engagement in tumor-bearing mice: further confirmed
